From patent publication US4016159A, “Acylamino-cephem-carboxylic acids containing an amidino or guanidino group in the molecule” (Hoechst Aktiengesellschaft, priority 1973, dated 1977)
Values after ≈ are worked out from the molar mass of the structure shown.

How the values were obtained:
Type in all cases: cell-based
[1] = system: Streptococcus D; assay: Minimum inhibition concentration (MIC), Table 4; settings: Germ: Streptococcus D; for MIC: Streptococcus, read-out: Minimum inhibition concentration (MIC)
From the text: (§1) Minimum inhibition concentration (MIC) in γ/ml

[2] = system: Staphylococcus aureus 285; assay: Minimum inhibition concentration (MIC), Table 1; settings: for Minimum inhibition concentration (MIC): Germ: Staphylococcus aureus 285; for MIC: Staphylococcus aureus, 285, Germ: Staphylococcus aureus 285, read-out: Minimum inhibition concentration (MIC)
From the text: as §1
Germ: Staphylococcus aureus 285

[3] = system: Streptococcus pyogenes A; assay: Minimum inhibition concentration (MIC), Table 3; settings: Germ: Streptococcus pyogenes A; for MIC: read-out: Minimum inhibition concentration MIC
From the text: Minimum inhibition concentration MIC in γ/ml
Germ: Streptococcus pyogenes A

[4] = system: Staphylococcus aureus SG 511; assay: Minimum inhibition concentration (MIC), Table 5; settings: for MIC: Staphylococcus aureus, SG511, Germ: Staphylococcus aureus SG 511, read-out: Minimum inhibition concentration (MIC)
From the text: as §1
Germ: Staphylococcus aureus SG 511

Compound | Minimum inhibition concentration (MIC) [1] [µg/mL] | Minimum inhibition concentration (MIC) [2] [µg/mL] | Minimum inhibition concentration (MIC) [3] [µg/mL] | MIC [1] [µg/mL] | MIC [2] [µg/mL] | MIC [3] [µg/mL] | MIC [4] [µg/mL] | Minimum inhibition concentration (MIC) ([4]; Germ: Staphylococcus aureus SG 511) [µg/mL]
3-[(5-methyl-1,3,4-thiadiazole-2-yl)-thiomethyl]-7-[4-(imidazoline-2-yl)-2-methoxyphenoxy-acetamido]-Δ3-cephem-4-carboxylic acid [Example 126] | 10 to 50 | 0.5 to 1.25 | 0.008 to 0.0156 |  |  |  |  | 
CCCc1nnc(SCC2=C(C(=O)O)N3C(=O)C(NC(=O)Cc4ccc(C5=NCCCN5)cc4)C3SC2)o1 (stereo not drawn) [Example 82, 3-[(5-n-propyl-1,3,4-oxadiazole-2-yl)-thiomethyl]-7-[4-(1,4,5,6-tetrahydropyrimide-2-yl)-phenylacetamido-]-Δ 3-cephem-4-carboxylic acid] |  |  |  | 10 to 50 (≈ 18 to 89.8 µM) | 0.5 to 1.25 (≈ 0.898 to 2.25 µM) | 0.008 to 0.0156 (≈ 0.0144 to 0.028 µM) |  | 
Cc1ccnc(SCC2=C(C(=O)O)N3C(=O)C(NC(=O)Cc4ccc(C5=NCCCN5)cc4)C3SC2)n1 (stereo not drawn) [Example 102, 3-[(4-methyl-pyrimide-2-yl)-thiomethyl]-7-[4-(1,4,5,6-tetrahydropyrimide-2-yl)-phenylacetamido]-Δ3-cephem-4-carboxylic acid] |  |  |  | 10 to 50 (≈ 18.6 to 92.8 µM) | 1.6 to 2.5 (≈ 2.97 to 4.64 µM) | 0.008 to 0.0156 (≈ 0.0149 to 0.029 µM) |  | 
O=C(Cc1ccc(C2=NCCCN2)cc1)NC1C(=O)N2C(C(=O)O)=C(CSc3nnc(-c4ccccc4)o3)CSC12 (stereo not drawn) [Example 83, 3-[(5-phenyl-1,3,4-oxadiazole-2-yl)-thiomethyl]-7-[4-(1,4,5,6-tetrahydropyrimide-2-yl)-phenylacetamido]-Δ 3-cephem-4-carboxylic acid] |  | 0.5 to 1.25 |  | 10 to 50 (≈ 16.9 to 84.6 µM) |  | 0.000391 to 0.0078 (≈ 0.000662 to 0.0132 µM) |  | 
Cc1nnc(SCC2=C(C(=O)O)N3C(=O)C(NC(=O)Cc4ccc(C(=N)N)cc4)C3SC2)s1 (stereo not drawn) [Example 26, 3-[(5-methyl-1,3,4-thiadiazole-2-yl)-thiomethyl]-7-(4-amidinophenylacetamido)-Δ 3-cephem-4-carboxylic acid] |  |  |  | 10 to 50 (≈ 19.8 to 99.1 µM) |  |  | 0.0625 to 0.078 (≈ 0.124 to 0.155 µM) | 
CCCc1nnc(SCC2=C(C(=O)O)N3C(=O)C(NC(=O)COc4ccc(C5=NCCN5)cc4)C3SC2)s1 (stereo not drawn) [Example 37, 3-[(5-n-propyl-1,3,4-thiadiazole-2-yl)-thiomethyl]-7-[4-(imidazoline-2-yl)-phenoxyacetamido]-Δ 3-cephem-4-carboxylic acid] |  |  |  | 0.196 to 6.25 (≈ 0.341 to 10.9 µM) | 0.5 to 1.25 (≈ 0.87 to 2.18 µM) | 0.000391 to 0.0078 (≈ 0.00068 to 0.0136 µM) |  | 
Cc1csc(SCC2=C(C(=O)O)N3C(=O)C(NC(=O)Cc4ccc(C(=N)N)cc4)C3SC2)n1 (stereo not drawn) [Example 5, 3-[(4-methyl-thioazole-2-yl)-thiomethyl]-7-(4-amidinophenyl-acetamido)-Δ3-cephem-4-carboxylic acid] |  |  |  | 10 to 50 (≈ 19.9 to 99.3 µM) | 0.156 to 0.391 (≈ 0.31 to 0.776 µM) |  | 0.0625 to 0.078 (≈ 0.124 to 0.155 µM) | 
Cc1csc(SCC2=C(C(=O)O)N3C(=O)C(NC(=O)Cc4ccc(C5=NCCN5)cc4)C3SC2)n1 (stereo not drawn) [Example 10, 3-[(4-methyl-thiazole-2-yl)-thiomethyl]-7-[4-(imidazoline-2-yl)-phenylacetamido]-Δ 3-cephem-4-carboxylic acid] |  |  |  | 10 to 50 (≈ 18.9 to 94.4 µM) | 0.5 to 1.25 (≈ 0.944 to 2.36 µM) | 0.000391 to 0.0078 (≈ 0.000738 to 0.0147 µM) |  | 
Cc1nnc(SCC2=C(C(=O)O)N3C(=O)C(NC(=O)COc4ccc(C(=N)N)cc4)C3SC2)s1 (stereo not drawn) [Example 46, 3-[(5-methyl-1,3,4-thiadiazole-2-yl)-thiomethyl]-7-[4-amidinophenoxyacetamido]-Δ 3-cephem-4-carboxylic acid] |  |  |  |  | 0.5 to 1.25 (≈ 0.96 to 2.4 µM) |  |  | 0.0196 to 0.0391
Cc1nnc(SCC2=C(C(=O)O)N3C(=O)C(NC(=O)COc4ccc(C5=NCCN5)cc4)C3SC2)s1 (stereo not drawn) [Example 75, 3-[(5-methyl-1,3,4-thiadiazole-2-yl)-thiomethyl]-7-[4-(imidazoline-2-yl)-phenoxyacetamido]-Δ 3-cephem-4-carboxylic acid] |  |  |  | 10 to 50 (≈ 18.3 to 91.5 µM) | 0.5 to 1.25 (≈ 0.915 to 2.29 µM) | 0.000391 to 0.0078 (≈ 0.000715 to 0.0143 µM) |  | 
COc1cc(C(=N)N)ccc1OCC(=O)NC1C(=O)N2C(C(=O)O)=C(CSc3nnc(C)s3)CSC12 (stereo not drawn) [Example 128, 3-[(5-methyl-1,3,4-thiadizole-2-yl)-thiomethyl]-7(4-amidino-2-methoxy-phenoxy-acetamido)-Δ3-cephem-4-carboxylic acid] |  |  |  |  | 0.156 to 0.391 (≈ 0.283 to 0.71 µM) | 0.008 to 0.0156 (≈ 0.0145 to 0.0283 µM) | 0.0625 to 0.078 (≈ 0.114 to 0.142 µM) | 
N=C(N)Nc1ccc(CC(=O)NC2C(=O)N3C(C(=O)O)=C(CSc4nccs4)CSC23)cc1 (stereo not drawn) [Example 8] |  |  |  | 10 to 50 (≈ 19.8 to 99.1 µM) | 0.5 to 1.25 (≈ 0.991 to 2.48 µM) |  | 0.0625 to 0.078 (≈ 0.124 to 0.155 µM) | 
CCCCc1nnc(SCC2=C(C(=O)O)N3C(=O)C(NC(=O)Cc4ccc(C5=NCCCN5)cc4)C3SC2)o1 (stereo not drawn) [Example 81, 3-[(5-n-butyl-1,3,4-oxadiazole-2-yl)-thiomethyl]-7-[4-(1,4,5,6-tetrahydropyrimide-2-yl)-phenyl-acetamido]-Δ 3-cephem-4-carboxylic acid] |  |  |  | 10 to 50 (≈ 17.5 to 87.6 µM) | 1.6 to 2.5 (≈ 2.8 to 4.38 µM) | 0.008 to 0.0156 (≈ 0.014 to 0.0273 µM) |  | 
O=C(Cc1ccc(C2=NCCCN2)cc1)NC1C(=O)N2C(C(=O)O)=C(CSC3=NNC(c4ccccc4)=CS3)CSC12 (stereo not drawn) [Example 99, 3-[(5-phenyl-4H-1,3,4-thiadiazine-2-yl)-thiomethyl]-7[4-(1,4,5,6-tetrahydropyrimide-2-yl)-phenylacetamido]-Δ3-cephem-4-carboxylic acid] |  |  |  | 10 to 50 (≈ 16.1 to 80.5 µM) | 0.5 to 1.25 (≈ 0.805 to 2.01 µM) | 0.008 to 0.0156 (≈ 0.0129 to 0.0251 µM) |  | 
CCCc1nnc(SCC2=C(C(=O)O)N3C(=O)C(NC(=O)Cc4ccc(C5=NCCCN5)cc4)C3SC2)s1 (stereo not drawn) [Example 79, 3-[(5-n-propyl-1,3,4-thiadiazole-2-yl)-thiomethyl]-7-[4-(1,4,5,6-tetrahydropyrimide-2-yl)-phenylacetamido]-Δ 3-cephem-4-carboxylic acid] |  |  |  | 10 to 50 (≈ 17.5 to 87.3 µM) | 0.5 to 1.25 (≈ 0.873 to 2.18 µM) | 0.008 to 0.0156 (≈ 0.014 to 0.0272 µM) |  | 
N=C(N)c1ccc(CC(=O)NC2C(=O)N3C(C(=O)O)=C(CSc4ccc5ccccc5n4)CSC23)cc1 (stereo not drawn) [Example 91, 3-quinoline[-2-yl-thiomethyl]-7-[4-amidino-phenyl-acetamido]-Δ 3-cephem-4-carboxylic acid] |  |  |  |  | 0.156 to 0.391 (≈ 0.292 to 0.733 µM) | 0.000391 to 0.0078 (≈ 0.000733 to 0.0146 µM) | 0.0625 to 0.078 (≈ 0.117 to 0.146 µM) | 
CCc1csc(SCC2=C(C(=O)O)N3C(=O)C(NC(=O)Cc4ccc(C5=NCCN5)cc4)C3SC2)n1 (stereo not drawn) [Example 115, 3-[(4-ethyl-thiazole-2-yl)-thiomethyl]-7-[4-(imidazoline-2-yl)-phenylacetamido]-Δ3-cephem-4-carboxylic acid] |  |  |  | 10 to 50 (≈ 18.4 to 92 µM) | 1.6 to 2.5 (≈ 2.94 to 4.6 µM) | 0.000391 to 0.0078 (≈ 0.000719 to 0.0143 µM) |  | 
CCc1nnc(SCC2=C(C(=O)O)N3C(=O)C(NC(=O)Cc4ccc(C5=NCCCN5)cc4)C3SC2)[nH]1 (stereo not drawn) [Example 95, 3-[(5-ethyl-triazole-2-yl)-thiomethyl]-7-[4-(1,4,5,6-tetrahydro-pyrimide-2-yl)-phenylacetamido]-Δ3-cephem-4-carboxylic acid] | 10 to 50 | 1.6 to 2.5 | 0.008 to 0.0156 |  |  |  |  | 
N=C(N)c1ccc(OCC(=O)NC2C(=O)N3C(C(=O)O)=C(CSC4=NCCS4)CSC23)cc1 (stereo not drawn) [Example 30, 3-[(Δ2-thiazolidine-2-yl)-thiomethyl]-7-(4-amidinophenoxyacetamido)-Δ3-cephem-4-carboxylic acid] |  |  |  | 10 to 50 (≈ 19.7 to 98.5 µM) | 0.5 to 1.25 (≈ 0.985 to 2.46 µM) | 0.000391 to 0.0078 (≈ 0.00077 to 0.0154 µM) |  | 
COc1cc(C(=N)N)ccc1OCC(=O)NC1C(=O)N2C(C(=O)O)=C(CSc3nncs3)CSC12 (stereo not drawn) [Example 127] |  |  |  |  | 0.156 to 0.391 (≈ 0.291 to 0.729 µM) | 0.000391 to 0.0078 (≈ 0.000729 to 0.0145 µM) | 0.0625 to 0.078 (≈ 0.116 to 0.145 µM) | 
N=C(N)c1ccc(OCC(=O)NC2C(=O)N3C(C(=O)O)=C(CSc4nnc(-c5ccccc5)o4)CSC23)cc1 (stereo not drawn) [Example 48, 3-[(5-phenyl-1,3,4-oxadiazole-2-yl)-thiomethyl]-7-(4-amidinophenoxyacetamido)-Δ 3-cephem-4-carboxylic acid] | 0.196 to 6.25 |  |  |  | 0.156 to 0.391 (≈ 0.275 to 0.69 µM) |  |  | 
N=C(N)c1ccc(CC(=O)NC2C(=O)N3C(C(=O)O)=C(CSc4nnco4)CSC23)cc1 (stereo not drawn) [Example 61, 3-[(1,3,4-oxadiazole-2-yl)-thiomethyl]-7-(4-amidino-phenylacetamido)-Δ 3-cephem-4-carboxylic acid] |  |  |  | 10 to 50 (≈ 21.1 to 105 µM) | 0.5 to 1.25 (≈ 1.05 to 2.63 µM) | 0.008 to 0.0156 (≈ 0.0169 to 0.0329 µM) |  | 
N=C(N)c1ccc(CC(=O)NC2C(=O)N3C(C(=O)O)=C(CSc4nnc(N)s4)CSC23)cc1 (stereo not drawn) [Example 59, 3-[(5-amino-1,3,4-thiadiazole-2-yl)-thiomethyl]-7-(4-amidinophenylacetamido)-Δ 3-cephem-4-carboxlic acid] |  |  |  | 10 to 50 (≈ 19.8 to 98.9 µM) | 0.5 to 1.25 (≈ 0.989 to 2.47 µM) | 0.000391 to 0.0078 (≈ 0.000773 to 0.0154 µM) |  | 
CCCc1nnc(SCC2=C(C(=O)O)N3C(=O)C(NC(=O)COc4ccc(C5=NCCN5)cc4)C3SC2)o1 (stereo not drawn) [Example 41, 3-[(5-n-propyl-1,3,4-oxadiazole-2-yl)-thiomethyl]-7-[4-(imidazoline-2-yl)-phenoxyacetamido]-Δ 3-cephem-4-carboxylic acid] |  |  |  | 10 to 50 (≈ 17.9 to 89.5 µM) | 0.5 to 1.25 (≈ 0.895 to 2.24 µM) | 0.000391 to 0.0078 (≈ 0.0007 to 0.014 µM) |  | 
Cc1cc(C)nc(SCC2=C(C(=O)O)N3C(=O)C(NC(=O)Cc4ccc(C5=NCCCN5)cc4)C3SC2)n1 (stereo not drawn) [Example 98] |  |  |  | 10 to 50 (≈ 18.1 to 90.5 µM) | 0.5 to 1.25 (≈ 0.905 to 2.26 µM) | 0.000391 to 0.0078 (≈ 0.000707 to 0.0141 µM) |  | 
